Experimental data reported in ChEMBL document CHEMBL1156428 (J Biol Chem, 2007).
Calls of active or inactive are those of the source. The rule behind the calls is not given here.

Tests used:
[1] = molecular target: T1, Human immunodeficiency virus type 1 reverse transcriptase (Human immunodeficiency virus 1, UniProt Q72547); assay: Inhibition of HIV1 RT mediated RNA-dependent minus-strand DNA synthesis after 5 mins by gel-based assay
[2] = molecular target: T1, Human immunodeficiency virus type 1 reverse transcriptase; assay: Inhibition of HIV1 RT mediated DNA-dependent plus-strand DNA polymerization after 5 mins by gel-based assay
[3] = molecular target: T1, Human immunodeficiency virus type 1 reverse transcriptase; assay: Inhibition of HIV1 RT mediated DNA-dependent DNA synthesis initiation using DNA PPT-primed substrate
[4] = molecular target: T1, Human immunodeficiency virus type 1 reverse transcriptase; assay: Inhibition of HIV1 RT mediated DNA-dependent DNA synthesis initiation using RNA/DNAM duplex primed substrate by scintillation proximity assay
[5] = molecular target: T1, Human immunodeficiency virus type 1 reverse transcriptase; assay: Inhibition of HIV1 RT mediated DNA-dependent DNA synthesis initiation using RNA PPT primed substrate by scintillation proximity assay
[6] = molecular target: T2, Human immunodeficiency virus type 1 reverse transcriptase (Human immunodeficiency virus 1, UniProt Q72547, K103N); assay: Inhibition of HIV1 RT K103N mutant mediated DNA-dependent DNA polymerization using RNA/DNAM duplex primed substrate by scintillation proximity assay
[7] = molecular target: T2, Human immunodeficiency virus type 1 reverse transcriptase; assay: Inhibition of HIV1 RT K103N mutant mediated DNA-dependent DNA polymerization using RNA PPT primed substrate by scintillation proximity assay
[8] = molecular target: T2, Human immunodeficiency virus type 1 reverse transcriptase; assay: Inhibition of HIV1 RT K103N mutant mediated DNA-dependent DNA polymerization using DNA PPT primed substrate by scintillation proximity assay
[9] = molecular target: T3, Human immunodeficiency virus type 1 reverse transcriptase (Human immunodeficiency virus 1, UniProt Q72547, Y181C); assay: Inhibition of HIV1 RT Y181C mutant mediated DNA-dependent DNA polymerization using RNA/DNAM duplex primed substrate by scintillation proximity assay
[10] = molecular target: T3, Human immunodeficiency virus type 1 reverse transcriptase; assay: Inhibition of HIV1 RT Y181C mutant mediated DNA-dependent DNA polymerization using RNA PPT primed substrate by scintillation proximity assay
[11] = molecular target: T3, Human immunodeficiency virus type 1 reverse transcriptase; assay: Inhibition of HIV1 RT Y181C mutant mediated DNA-dependent DNA polymerization using DNA PPT primed substrate by scintillation proximity assay
[12] = molecular target: T1, Human immunodeficiency virus type 1 reverse transcriptase; assay: Inhibition of HIV1 RT mediated DNA-dependent DNA polymerization
[13] = molecular target: T1, Human immunodeficiency virus type 1 reverse transcriptase; assay: Inhibition of HIV1 RT mediated DNA-dependent DNA polymerization using chimeric substrate with RNA PPT primer
[14] = molecular target: T1, Human immunodeficiency virus type 1 reverse transcriptase; assay: Inhibition of HIV1 RT mediated DNA-dependent DNA polymerization using chimeric substrate with RNA PPT primer extended at 3' end with upto one deoxyribonucleotide
[15] = molecular target: T1, Human immunodeficiency virus type 1 reverse transcriptase; assay: Inhibition of HIV1 RT mediated DNA-dependent DNA polymerization using chimeric substrate with RNA PPT primer extended at 3' end with upto 2 deoxyribonucleotides
[16] = molecular target: T1, Human immunodeficiency virus type 1 reverse transcriptase; assay: Inhibition of HIV1 RT mediated DNA-dependent DNA polymerization using chimeric substrate with RNA PPT primer extended at 3' end with upto 3 deoxyribonucleotides
[17] = molecular target: T1, Human immunodeficiency virus type 1 reverse transcriptase; assay: Inhibition of HIV1 RT mediated DNA-dependent DNA polymerization using chimeric substrate with RNA PPT primer extended at 3' end with upto 9 deoxyribonucleotides
[18] = molecular target: T1, Human immunodeficiency virus type 1 reverse transcriptase; assay: Inhibition of HIV1 RT mediated DNA-dependent DNA polymerization using chimeric substrate with RNA PPT primer extended at 3' end with upto 12 deoxyribonucleotides
[19] = Inhibition of HIV1 RT D443N mutant mediated DNA-dependent DNA polymerization using chimeric substrate with RNA PPT primer; set-up: species or system Human immunodeficiency virus 1
[20] = Inhibition of HIV1 RT D443N mutant mediated DNA-dependent DNA polymerization using chimeric substrate with RNA PPT primer extended at 3' end with upto one deoxyribonucleotide; set-up: species or system Human immunodeficiency virus 1
[21] = test system: Human immunodeficiency virus 1; assay: Inhibition of HIV1 RT D443N mutant mediated DNA-dependent DNA polymerization
[22] = Inhibition of HIV1 RT D443N mutant mediated DNA-dependent DNA polymerization using chimeric substrate with RNA PPT primer extended at 3' end with upto 2 deoxyribonucleotides; set-up: species or system Human immunodeficiency virus 1
[23] = Inhibition of HIV1 RT D443N mutant mediated DNA-dependent DNA polymerization using chimeric substrate with RNA PPT primer extended at 3' end with upto 3 deoxyribonucleotides; set-up: species or system Human immunodeficiency virus 1
[24] = Inhibition of HIV1 RT D443N mutant mediated DNA-dependent DNA polymerization using chimeric substrate with RNA PPT primer extended at 3' end with upto 6 deoxyribonucleotides; set-up: species or system Human immunodeficiency virus 1
[25] = Inhibition of HIV1 RT D443N mutant mediated DNA-dependent DNA polymerization using chimeric substrate with RNA PPT primer extended at 3' end with upto 9 deoxyribonucleotides; set-up: species or system Human immunodeficiency virus 1
[26] = Inhibition of HIV1 RT D443N mutant mediated DNA-dependent DNA polymerization using chimeric substrate with RNA PPT primer extended at 3' end with upto 12 deoxyribonucleotides; set-up: species or system Human immunodeficiency virus 1

CCc1cc(NCc2nc3c(Cl)ccc(Cl)c3o2)c(O)nc1C [L-697661]
IC50 [1]: 1.4 µM
IC50 [2]: 0.035 µM
IC50 [3]: > 10 µM
IC50 [4]: 0.23 µM
IC50 [5]: 0.43 µM
IC50 [6]: > 5 µM
IC50 [7]: > 5 µM
IC50 [8]: > 5 µM
IC50 [9]: > 5 µM
IC50 [10]: > 5 µM
IC50 [11]: > 5 µM
IC50 [12]: 0.29 µM
IC50 [13]: 0.28 µM
IC50 [14]: 0.22 µM
IC50 [15]: 0.28 µM
IC50 [16]: 0.27 µM
IC50 [17]: 0.32 µM
IC50 [18]: 0.13 µM
IC50 [19]: 0.44 µM
IC50 [20]: 0.24 µM
Activity [21]: inactive
IC50 [22]: 0.23 µM
IC50 [23]: 0.24 µM
IC50 [24]: 0.27 µM
IC50 [25]: 0.13 µM
IC50 [26]: 0.15 µM

Cc1cn([C@H]2C[C@H](N=[N+]=[N-])[C@@H](CO[P@](=O)(O)O[P@](=O)(O)OP(=O)(O)O)O2)c(=O)[nH]c1=O [ZIDOVUDINE TRIPHOSPHATE]
IC50 [4]: 0.36 µM
IC50 [5]: 0.32 µM
